Among the data in the Kinase Knowledgebase extract (Sharma et al. 2016) are IC50 values, retold here.

For this test, the target named is MAPK14;MAPK11;MAPK12 (human) (UniProt Q16539). Put plainly: Inhibition of p38 Kinase Activity.

The IC50 is the concentration that gives 50% inhibition.

A value given as a limit tells only on which side of the number the result lay.

In turn, `Cc1ccc(C(N)=O)cc1Nc1nc(NC2CCN(Cc3ccccc3)C2)nc(N[C@H]2CCNC2)n1` (some centres not stated) yielded an IC50 of less than 1000 nM.
The compound `Cc1ccc(C(N)=O)cc1Nc1nc(NC2CCc3ccccc32)nc(N[C@@H]2CCNC2)n1` (some centres not stated) registered an IC50 of less than 1000 nM.
In turn, `Cc1ccc(C(N)=O)cc1Nc1nc(NC2CCN(Cc3ccc(C(C)C)cc3)C2)nc(N(C)CC(C)C)n1` (configuration not stated) came in with an IC50 of less than 1000 nM.
Consider `CC1(C)C2CCC(CNc3nc(Nc4ccc5ncoc5c4)nc(N4CCNCC4)n3)C1C2` (configuration not stated), for which the IC50 is less than 10000 nM.
Take `COc1ccc(C(=O)N2CCN(c3nc(NCC(C)c4ccccc4)nc(Nc4ccc5ncsc5c4)n3)CC2)cc1` (configuration not stated): the IC50 was less than 10000 nM.
In turn, `CC(CNc1nc(Nc2ccc3ncsc3c2)nc(N2CC3CC2CN3C(=O)C2CCOC2)n1)c1ccccc1` (configuration not stated) returned a concentration for half-maximal inhibition (IC50) of less than 10000 nM.
In the case of `CNCCN(C)c1nc(NCC(C)c2ccccc2)nc(Oc2ccc3ncsc3c2)n1` (configuration not stated) it was less than 10000 nM.
`COCC(=O)N(C)CCCN(C)c1nc(NCC(C)c2ccccc2)nc(Nc2ccc3ncsc3c2)n1` (configuration not stated) had an IC50 of less than 10000 nM.
In the case of `Cc1ccc(C(N)=O)cc1Nc1nc(N[C@H]2CCN(Cc3ccccc3C#N)C2)nc(N(C)CC(C)C)n1`, the IC50 was less than 1000 nM.
Consider `CCONC(=O)c1ccc(C)c(Nc2cc(N(C)CC(C)(C)C)nc(N3CCCN(C)CC3)n2)c1`, for which the IC50 was less than 1000 nM.
In the case of `CC(C)CN(C)c1nc(Nc2cc(C(N)=O)ccc2C(F)(F)F)nc(N[C@H]2CCNC2)n1` it was less than 1000 nM.
In turn, `Cc1ccc(-c2nnc[nH]2)cc1Nc1nc(N[C@@H]2CCNC2)nc(N(C)CC(C)(C)C)n1` returned an IC50 of less than 1000 nM.
On to `Cc1ccc(C(N)=O)cc1Nc1nc(NC[C@@H]2CC[C@H]3C[C@@H]2C3(C)C)nc(N[C@@H]2CCNC2)n1`, for which the half-maximal inhibitory concentration (IC50) is less than 1000 nM.
In the case of `CNc1nc(Nc2ccc3ncsc3c2)nc(N[C@@H](C)C2CCCCC2)n1` it was less than 10000 nM; in that of `CC1(C)[C@H]2CC[C@@H](CNc3nc(Cl)nc(Nc4ccc5ncsc5c4)n3)[C@@H]1C2`, less than 10000 nM; in that of `CC(CNc1nc(Nc2ccc3ncsc3c2)nc(N(C)CCCN(C)C(=N)N)n1)c1ccccc1` (configuration not stated), less than 10000 nM.
In the case of `Cc1ccc(CN2CCC(Nc3nc(Nc4cc(C(N)=O)ccc4C)nc(N(C)CC(C)C)n3)C2)c(C)c1` (configuration not stated) it was less than 1000 nM; in that of `Cc1ccc(C(N)=O)cc1Nc1nc(NCC2CCCCC2)nc(N[C@@H]2CCNC2)n1`, less than 1000 nM.
In the case of `CONC(=O)c1ccc(C)c(Nc2nc(N[C@H]3CNC(=O)C3)nc(N(C)CC(C)(C)C)n2)c1` it was less than 1000 nM; in that of `Cc1ccc(C(N)=O)cc1Nc1nc(NC(C)C2CCCCC2)nc(N[C@H]2CCNC2)n1` (some centres not stated), less than 1000 nM.
Regarding `CONC(=O)c1ccc(C)c(Nc2nc(NCCNc3ccccc3)nc(N(C)CC(C)(C)C)n2)c1`, the concentration for half-maximal inhibition (IC50) is less than 1000 nM.
In the case of `CC(C)c1nc(NCC(C)c2ccccc2)nc(Nc2ccc3ncsc3c2)n1` (configuration not stated) it was less than 10000 nM; in that of `Cc1ccc(C(=O)Nc2c(Cl)cccc2Cl)cc1Nc1nc(N[C@H]2CCNC2)nc(N(C)CC(C)(C)C)n1`, less than 1000 nM.
In the case of `C[C@H](CNc1ncnc(Nc2ccc3ncsc3c2)n1)c1ccccc1` it was less than 10000 nM; in that of `CNc1nc(Nc2cc(C(=O)NOC)ccc2C)nc(N(C)CC(C)(C)C)n1`, less than 1000 nM.
In turn, `CONC(=O)c1ccc(C)c(Nc2nc(N[C@H]3CCNC3)cc(N(C)CC(C)(C)C)n2)c1` came in with an IC50 of less than 1000 nM.
In the case of `Cc1ccc(C(N)=O)cc1Nc1nc(N[C@H]2CCCNC2)nc(N(C)CC(C)(C)C)n1` it was less than 1000 nM; in that of `CCCC1(C)CCN(c2nc(Nc3cc(C(N)=O)ccc3C)nc(N[C@@H]3CCNC3)n2)C1` (some centres not stated), less than 1000 nM; in that of `Cc1ccc(C(=O)O)cc1Nc1nc(N[C@H]2CCNC2)nc(N(C)CC(C)(C)C)n1`, less than 1000 nM.
`Cc1ccc(C(N)=O)cc1Nc1nc(NCC(N)=O)nc(NCC(C)c2ccccc2)n1` (configuration not stated) returned an IC50 of less than 1000 nM.
In the case of `Cc1ccc(C(N)=O)cc1Nc1nc(N[C@H]2CCCC[C@H]2NC(=O)CO[C@H]2C[C@@H](C)CC[C@H]2C(C)C)nc(N(C)CC(C)C)n1` it was less than 1000 nM; in that of `Cc1ccc(C(N)=O)cc1Nc1nc(N[C@H]2CCN(C3CCCCC3)C2)nc(N(C)CC(C)C)n1`, less than 1000 nM.
Consider `Cc1c(Nc2nc(NCC(C)c3ccccc3)nc(N3CCNCC3)n2)ccc2ncsc12` (configuration not stated), for which the IC50 is less than 10000 nM.
In the case of `Cc1ccc(C(N)=O)cc1Nc1nc(O[C@H]2CCNC2)nc(N(C)CC(C)(C)C)n1` it was less than 1000 nM; in that of `CC1(C)C2CCC(CNc3nc(Nc4ccc5ncsc5c4)nc(N4CCC(C(N)=O)CC4)n3)C1C2` (configuration not stated), less than 10000 nM; in that of `Cc1ccc(C(=O)NC2CCCC2)cc1Nc1nc(N[C@H]2CCNC2)nc(N(C)CC(C)(C)C)n1`, less than 1000 nM.
In the case of `CONC(=O)c1ccc(C)c(Nc2nc(NCC3CCC(=O)N3)nc(N(C)CC(C)(C)C)n2)c1` (configuration not stated) it was less than 1000 nM; in that of `CC(CNc1nc(Nc2ccc3ncsc3c2)nc(N(C)C)n1)c1ccc(Cl)cc1` (configuration not stated), less than 10000 nM; in that of `CCNC(=O)c1ccc(C)c(Nc2nc(NC[C@H]3CCCN3)nc(N(C)CC(C)(C)C)n2)c1`, less than 1000 nM.
In the case of `Cc1ccc(C(N)=O)cc1Nc1nc(N[C@H]2CCN(C(C)c3ccncc3)C2)nc(N(C)CC(C)C)n1` (some centres not stated) it was less than 1000 nM; in that of `CONC(=O)c1ccc(C)c(Nc2nc(F)cc(N(C)CC(C)(C)C)n2)c1`, less than 1000 nM.
Regarding `Cc1ccc(COC(=O)C(F)(F)F)cc1Nc1nc(N[C@H]2CCNC2)nc(N(C)CC(C)(C)C)n1`, the IC50 was less than 1000 nM.
In the case of `COCC(=O)N1CC2CC1CN2c1nc(NCC(C)c2ccccc2)nc(Nc2ccc3ncsc3c2)n1` (configuration not stated) it was less than 10000 nM; in that of `CNCCN(C)c1nc(NC[C@@H](C)c2ccccc2)nc(-n2cnc3ccccc32)n1`, less than 10000 nM; in that of `Cc1ccc(C(N)=O)cc1Nc1nc(N[C@H]2CCNC2)nc(OCC(C)(C)C)n1`, less than 1000 nM.
For the compound `CCNC(=O)N1CCN(c2nc(NCC(C)c3ccccc3)nc(Nc3ccc4ncsc4c3)n2)CC1` (configuration not stated), the IC50 is less than 10000 nM.
`CC(CNc1nc(Nc2ccc3ncsc3c2)nc(N(C)CCCN(C)S(=O)(=O)N(C)C)n1)c1ccccc1` (configuration not stated): the 50% inhibitory concentration (IC50) is less than 10000 nM.
Compound `Cc1ccc(C(N)=O)cc1Nc1nc(NC2CCN(C)C2)nc(N(C)CC(C)C)n1` (configuration not stated) displayed a half-inhibitory concentration (IC50) of less than 1000 nM.
In the case of `CCC(C)(C)c1nc(Nc2cc(C(N)=O)ccc2C)nc(N[C@H]2CCNC2)n1` it was less than 1000 nM; in that of `Cc1c(Nc2nc(Cl)nc(NCC(C)c3ccccc3)n2)ccc2ncsc12` (configuration not stated), less than 10000 nM; in that of `Cc1ccc(C(=O)NC2CCCCC2)cc1Nc1nc(N[C@H]2CCNC2)nc(N(C)CC(C)(C)C)n1`, less than 1000 nM.
In the case of `Cc1ccc(C(N)=O)cc1Nc1nc(N[C@H]2CCNC2)nc(N(C)CC(C)C(F)(F)F)n1` (some centres not stated) it was less than 1000 nM.
In the case of `Cc1ccc(C(N)=O)cc1Nc1nc(N[C@H]2CCCNC2)nc(N(C)CC(C)C)n1` it was less than 1000 nM.
For the compound `CNCCN(C)c1nc(NCc2ccc(F)cc2F)nc(Nc2ccc3ncsc3c2)n1`, the IC50 was less than 10000 nM.
In the case of `CC(C)CN(C)c1nc(NC2CCN(CC3CCNCC3)C2)nc(NC2CC(C(N)=O)CCC2C)n1` (configuration not stated), the half-inhibitory concentration (IC50) was less than 1000 nM.
In the case of `CC(CNc1nc(Nc2ccc3ncsc3c2)nc(N(C)CCCN(C)C(=O)c2ccccc2)n1)c1ccccc1` (configuration not stated) it was less than 10000 nM; in that of `Cc1cc2c(cc1Nc1nc(NCC(C)(C)C)nc(N[C@H]3CCNC3)n1)C(=O)NC2`, less than 1000 nM; in that of `Cc1ccc(C(N)=O)cc1Nc1nc(NCCC(C)(C)C)nc(N[C@@H]2CCNC2)n1`, less than 1000 nM.
`CCC(C)N1CC[C@@H](Nc2nc(Nc3cc(C(N)=O)ccc3C)nc(N(C)CC(C)(C)C)n2)C1` (some centres not stated) displayed an IC50 of less than 1000 nM.
`Cc1ccc(C(N)=O)cc1Nc1nc(NC2CNC2)nc(N(C)CC(C)(C)C)n1` returned an IC50 of less than 1000 nM.
`CONC(=O)c1ccc(C)c(Nc2nc(NCCNC(C)=O)nc(N(C)CC(C)(C)C)n2)c1` gave an IC50 of less than 1000 nM.
With `CCN1CC[C@@H](Nc2nc(Nc3cc(C(N)=O)ccc3C)nc(N(C)CC(C)(C)C)n2)C1`, the IC50 was less than 1000 nM.
On to `Cc1ccc(C(N)=O)cc1Nc1nc(NC2CCN(C(C)C)CC2)nc(N(C)CC(C)(C)C)n1`, for which the 50% inhibitory concentration (IC50) is less than 1000 nM.
In the case of `Cc1ccc(C(N)=O)cc1Nc1nc(N[C@H]2CCN(Cc3cccc(O)c3)C2)nc(N(C)CC(C)C)n1` it was less than 1000 nM; in that of `COc1ccc(NC(=O)c2ccc(C)c(Nc3nc(N[C@H]4CCNC4)nc(N(C)CC(C)(C)C)n3)c2)cc1`, less than 1000 nM; in that of `CN(CCN(C)c1nc(NCC2CCC3CC2C3(C)C)nc(Nc2ccc3ncsc3c2)n1)C(=O)CCC(=O)O` (configuration not stated), less than 10000 nM.
In turn, `Cc1ccc(C(N)=O)cc1Nc1nc(NC2CCS(=O)(=O)C2)nc(N(C)CC(C)(C)C)n1` (configuration not stated) yielded an IC50 of less than 1000 nM.
In the case of `CNCCN(C)c1nc(NCc2ccc(F)cc2F)nc(-n2cnc3ccccc32)n1`, the IC50 was less than 10000 nM.
With `CNC(=O)C1CCN(c2nc(NC[C@@H]3CC[C@@H]4C[C@H]3C4(C)C)nc(Nc3ccc4ncsc4c3)n2)CC1`, the 50% inhibitory concentration (IC50) is less than 10000 nM.
As to `NC(=O)CNc1nc(NCCc2ccccc2)nc(Nc2ccc3ncsc3c2)n1`, the IC50 was less than 10000 nM.
In the case of `CC(CNc1nc(Nc2ccc3ncsc3c2)nc(N2CC3CC2CN3C(=O)c2ccco2)n1)c1ccccc1` (configuration not stated) it was less than 10000 nM; in that of `Cc1ccc(C(N)=O)cc1Nc1nc(NCC23CC4CC(CC(C4)C2)C3)nc(N[C@@H]2CCNC2)n1`, less than 1000 nM.
In the case of `CNCCN(C)c1nc(NCc2ccc3c(c2)OCO3)nc(NCC(C)c2ccccc2)n1` (configuration not stated) it was less than 10000 nM; in that of `Cc1ccc(-c2nn(C)c(=O)[nH]2)cc1Nc1nc(N[C@@H]2CCNC2)nc(N(C)CC(C)(C)C)n1`, less than 1000 nM.
In the case of `CNC(=O)c1ccc(C)c(Oc2nc(NCc3ccccn3)nc(N(C)CC(C)(C)C)n2)c1`, the IC50 was less than 30000 nM.
The compound `CNCCN(C)c1nc(NCC2CCC3CC2C3(C)C)nc(Nc2ccc3ncsc3c2)n1` (configuration not stated) gave an IC50 of less than 10000 nM.
Regarding `CCONC(=O)c1ccc(C)c(Nc2nc(NC)cc(N(C)CC(C)(C)C)n2)c1`, the IC50 is less than 1000 nM.
In the case of `COC(=O)Nc1ccc(C)c(Nc2nc(N[C@H]3CCNC3)nc(N(C)CC(C)(C)C)n2)c1` it was less than 1000 nM; in that of `CC1(C)C2CCC(CNc3nc(N)nc(Nc4ccc(S(=O)(=O)N(C=O)c5ncccn5)cc4)n3)C1C2` (configuration not stated), less than 10000 nM; in that of `Cc1ccc(C(N)=O)cc1Sc1nc(NCc2ccccn2)nc(N(C)CC(C)(C)C)n1`, less than 30000 nM.
In turn, `Cc1ccc(C(N)=O)cc1Nc1nc(N[C@@H]2CCN(C(C)C(F)(F)F)C2)nc(N(C)CC(C)(C)C)n1` (some centres not stated) showed an IC50 of less than 1000 nM.
`Cc1ccc(C(N)=O)cc1Nc1nc(NCC2CCNCC2)nc(NC(C)C2CCCCC2)n1` (configuration not stated) returned an IC50 of less than 1000 nM.
